We go through 2 compounds from patent publication US5807886A, “Bicyclic amidine dervatives as inhibitors of nitric oxide synthetase” (priority 1994, dated 1998).

One may read the IC50 as the concentration that inhibits the measured activity by half. By inhibition is commonly meant the share of the control response that was lost under treatment.

Test [1] deals with T1, neuronal nitric oxide synthetase (Rattus norvegicus, UniProt P29476).
T1 construct: Enzyme was isolated from rat hippocampus or cerebellum; from tissue; host or cells: male Sprague-Dawley rat cerebellum or hippocampus, 20,000 g supernatant
The test can be described thus: Screen A: neuronal nitric oxide synthetase inhibiting activity. The format is biochemical. The conditions noted are these: enzyme from rat hippocampus or cerebellum; 22° C., pH 7.4, 10 minutes; read-out: IC50 in Screen A (neuronal isoform).
Experimental: Enzyme was isolated from rat hippocampus or cerebellum. The cerebellum or hippocampus of a male Sprague-Dawley rat (250-275 g) is removed following CO2 anaesthesia of the animal and decapitation. Cerebellar or hippocampal supernatant is prepared by homogenisation in 50 mM Tris-HCl with 1 mM EDTA buffer (pH 7.2 at 25° C.) and centifugation for 15 minutes at 20,000 g. Residual L-arginine is removed from the supernatant by chromatography through Dowex AG-50W-X8 sodium form and hydrogen form columns successively, and further centrifugation at 1000 g for 30 seconds. […]
Labelled L-citrulline is separated from labelled L-arginine by chromatography over a Dowex AG-50W-X8 200-400 mesh column. 1 ml of each terminated reaction is added to an individual 1 ml column and the eluant combined with that from two 1 ml distilled water washes and 16 ml of scintillation cocktail The L-citrulline is then quantified by scintillation counting. […]

For test [2], the target named is T2, macrophage nitric oxide synthetase (Mus musculus, UniProt P29477).
T2 construct: Enzyme is prepared, after induction, from the cultured murine macrophage cell line J774A-1; endogenous in cells; host or cells: J774A-1 murine macrophages induced with LPS and IFN-gamma (lysate); cells from laboratories of the Imperial Cancer Research Fund
Briefly: Screen B: macrophage nitric oxide synthetase inhibiting activity. Format: biochemical, murine. The settings on record: macrophage IC50 / neuronal IC50. The source says: The enzyme nitric oxide synthetase has a number of isoforms and compounds of formula I, or pharmaceutically acceptable salts thereof, may be screened for nitric oxide synthetase inhibiting activity by procedures based on those of Bredt and Snyder in Proc. Natl. Acad. Sci. (1990) 87, 682-685 and Forstermann et. al., Eur. J. Pharm. (1992) 225, 161-165 as follows. Nitric oxide synthetase converts ^3 H-L-arginine to ^3 H-L-citrulline which can be separated by cation exchange chromatography and quantified by scintillation counting.
Enzyme is prepared, after induction, from the cultured murine macrophage cell line J774A-1 (obtained from laboratories of the Imperial Cancer Research Fund).
J774A-1 cells are cultured in Dulbecco's Modified Eagles Medium (DMEM) supplemented with 10% foetal bovine serum, 4 mM L-glutamine and antibiotics (100 units/ml penicillin G, 100 μg/ml streptomycin & 0.25 μg/ml amphotericin B).
Cells are routinely grown in 225 cm^2 flasks containing 35 ml medium kept at 37° C. and in a humidified atmosphere containing 5% CO2.
Nitric oxide synthetase is produced by cells in response to interferon-γ (IFNγ) and lipopolysaccharide (LPS). […]
Labelled L-citrulline is separated from labelled L-arginine using Dowex AG-50W. […] After allowing the samples to dry the L-citrulline is quantified by scintillation counting. […]

In test [3] the target is T3, endothelial nitric oxide synthetase (Homo sapiens, UniProt P29474).
T3 construct: Enzyme may be isolated from human umbilical vein endothelial cells (HUVECs); endogenous in cells; host or cells: HUVECs (cells purchased from Clonetics Corp, San Diego); CHAPS-solubilised pellet supernatant
Briefly: Screen C: endothelial nitric oxide synthetase inhibiting activity. Format: biochemical.
Experimental: HUVECs were purchased from Clonetics Corp (San Diego, Calif. USA) and cultured to confluency. Cells can be maintained to passage 35-40 without significant loss of yield of nitric oxide synthetase. When cells reach confluency, they are resuspended in Dulbecco's phosphate buffered saline, centrifuged at 800 rpm for 10 mins, the cell pellet homogenised in ice-cold 50 mM Tris-HCl , 1 mM EDTA, 10% glycerol, 1 mM phenylmethylsulphonylfluoride, 2 μM leupeptin at pH 4.2. Following centrifugation at 34,000 rpm for 60 mins, the pellet is solubilised in the homogenisation buffer which also contains 20 mM CHAPS. After a 30 min incubation on ice, the suspension is centrifuged at 34,000 rpm for 30 mins. The resulting supernatant is stored at -80° C. until use. […]
Labelled L-citrulline is separated from labelled L-arginine by chromatography over a Dowex AG-50W-X8 200-400 mesh column. […] The L-citrulline is then quantified by scintillation counting. […]

T3 sequence (P29474 2-1203): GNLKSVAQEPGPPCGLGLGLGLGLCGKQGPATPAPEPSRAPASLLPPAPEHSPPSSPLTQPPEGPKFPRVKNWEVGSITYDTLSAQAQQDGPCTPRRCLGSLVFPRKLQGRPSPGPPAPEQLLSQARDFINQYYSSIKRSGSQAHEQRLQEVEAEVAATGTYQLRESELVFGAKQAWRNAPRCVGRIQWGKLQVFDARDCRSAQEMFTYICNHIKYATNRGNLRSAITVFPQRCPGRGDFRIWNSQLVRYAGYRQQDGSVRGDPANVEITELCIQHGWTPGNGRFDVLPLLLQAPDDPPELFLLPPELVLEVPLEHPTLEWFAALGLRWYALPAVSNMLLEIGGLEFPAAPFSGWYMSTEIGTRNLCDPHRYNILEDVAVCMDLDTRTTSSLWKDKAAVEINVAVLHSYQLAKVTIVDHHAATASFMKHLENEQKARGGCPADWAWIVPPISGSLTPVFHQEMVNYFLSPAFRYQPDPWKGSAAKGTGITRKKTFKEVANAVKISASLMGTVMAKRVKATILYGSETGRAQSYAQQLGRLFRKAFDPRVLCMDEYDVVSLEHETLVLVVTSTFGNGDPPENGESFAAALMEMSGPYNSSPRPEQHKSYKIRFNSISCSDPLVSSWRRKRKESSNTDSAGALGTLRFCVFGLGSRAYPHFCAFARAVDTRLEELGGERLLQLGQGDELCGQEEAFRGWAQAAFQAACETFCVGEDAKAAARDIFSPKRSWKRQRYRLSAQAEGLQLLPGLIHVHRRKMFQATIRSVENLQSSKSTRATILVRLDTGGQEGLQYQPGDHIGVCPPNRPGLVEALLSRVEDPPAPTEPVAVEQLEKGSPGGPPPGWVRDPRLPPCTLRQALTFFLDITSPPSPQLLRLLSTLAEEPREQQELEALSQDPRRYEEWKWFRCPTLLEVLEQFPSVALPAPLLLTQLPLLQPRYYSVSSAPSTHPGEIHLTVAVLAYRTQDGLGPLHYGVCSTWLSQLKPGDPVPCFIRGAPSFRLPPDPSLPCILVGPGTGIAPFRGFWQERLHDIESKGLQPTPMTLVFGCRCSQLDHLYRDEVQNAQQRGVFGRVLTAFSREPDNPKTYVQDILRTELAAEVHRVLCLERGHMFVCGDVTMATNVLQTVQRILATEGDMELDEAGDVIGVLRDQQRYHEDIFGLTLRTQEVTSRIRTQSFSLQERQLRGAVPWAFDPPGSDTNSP
T1 sequence (P29476 whole entry): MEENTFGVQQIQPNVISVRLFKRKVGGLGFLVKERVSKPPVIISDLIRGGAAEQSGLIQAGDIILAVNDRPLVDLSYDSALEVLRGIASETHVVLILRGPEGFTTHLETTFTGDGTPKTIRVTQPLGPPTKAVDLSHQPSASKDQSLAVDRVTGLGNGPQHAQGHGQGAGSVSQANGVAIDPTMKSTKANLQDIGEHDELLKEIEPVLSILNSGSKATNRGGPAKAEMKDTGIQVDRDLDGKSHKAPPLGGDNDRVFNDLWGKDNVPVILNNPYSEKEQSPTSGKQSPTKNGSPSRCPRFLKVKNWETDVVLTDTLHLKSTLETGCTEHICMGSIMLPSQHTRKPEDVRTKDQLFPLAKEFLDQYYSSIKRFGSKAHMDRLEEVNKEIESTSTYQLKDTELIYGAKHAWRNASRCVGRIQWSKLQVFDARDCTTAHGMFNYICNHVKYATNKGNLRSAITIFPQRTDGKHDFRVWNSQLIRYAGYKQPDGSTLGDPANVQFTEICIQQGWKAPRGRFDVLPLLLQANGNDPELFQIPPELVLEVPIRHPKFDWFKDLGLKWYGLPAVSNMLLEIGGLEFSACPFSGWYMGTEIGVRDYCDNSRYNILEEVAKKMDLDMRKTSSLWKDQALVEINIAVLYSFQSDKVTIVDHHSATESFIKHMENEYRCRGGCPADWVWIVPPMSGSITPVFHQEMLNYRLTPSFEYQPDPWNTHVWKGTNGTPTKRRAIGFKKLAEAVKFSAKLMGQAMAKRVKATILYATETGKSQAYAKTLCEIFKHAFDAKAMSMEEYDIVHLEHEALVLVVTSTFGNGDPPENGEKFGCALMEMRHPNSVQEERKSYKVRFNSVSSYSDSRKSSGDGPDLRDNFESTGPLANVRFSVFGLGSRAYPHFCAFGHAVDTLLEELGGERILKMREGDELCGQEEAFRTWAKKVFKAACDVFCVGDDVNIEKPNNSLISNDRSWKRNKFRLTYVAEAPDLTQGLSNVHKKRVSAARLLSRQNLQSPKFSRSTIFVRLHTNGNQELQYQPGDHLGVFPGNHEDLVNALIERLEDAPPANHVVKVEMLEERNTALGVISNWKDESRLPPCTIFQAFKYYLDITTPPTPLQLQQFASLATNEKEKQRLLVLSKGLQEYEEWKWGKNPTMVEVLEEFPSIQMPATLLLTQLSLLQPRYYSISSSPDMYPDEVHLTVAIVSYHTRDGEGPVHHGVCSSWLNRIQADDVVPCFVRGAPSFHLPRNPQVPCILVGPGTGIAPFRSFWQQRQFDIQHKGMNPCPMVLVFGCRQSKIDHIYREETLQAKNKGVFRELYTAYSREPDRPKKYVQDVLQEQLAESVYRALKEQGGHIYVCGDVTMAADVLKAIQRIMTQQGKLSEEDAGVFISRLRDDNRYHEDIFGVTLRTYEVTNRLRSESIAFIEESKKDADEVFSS

In the case of `N=C(Nc1ccc2c(c1)CC(NCc1ccccc1)C2)c1cccs1` (stereo not shown) [Example 1, N-((2-(Phenylmethyl)amino)indan-5-yl)-2-thiophenecarboximidamide dioxalate], in test [1], the IC50 is less than 10 µM. For the same compound, in test [2], the “IC50 in Screen B relative to that obtained in Screen A (selectivity)” value was “more than 10 times”. Also, in test [3] (endothelial IC50 / neuronal IC50), the “IC50 in Screen C relative to that obtained in Screen A (selectivity)” value is “more than 10 times”.

In the case of `N=C(NCCC[C@H](N)C(=O)O)N[N+](=O)[O-]` [N-nitro-L-arginine, reference compound], the inhibition at 1 µM in test [3] (at a concentration of 1 μM, HUVEC enzyme, read-out: inhibition of nitric oxide synthetase (reference standard, Screen C)) fell in the range of 70 to 90%.
